Structures can show the parent of a compound that is named as a salt.
Molecular target: T1, human cloned 5-HT6 receptors (Homo sapiens, UniProt P50406)
T1 construct: expressed in transfected cells; host or cells: HeLa cells expressing cloned human 5-HT6 receptor (membranes)
Experiment: Cyclase assay (cAMP production in membranes of HeLa 5HT6 cells, 5-HT stimulated)
Format: biochemical
Conditions: 5-HT at 4xEC50, functional Ki by Cheng-Prusoff, read-out: pKi values (converted)
Protocol: 0.5 μl of test compound in 100% dimethylsulfoxide (DMSO) was added to a white, solid 384 well assay plate (for dose response measurements the top of the concentration range is 7.5 μM final). 10 μl of washed membranes of HeLa 5HT6 cells (for preparation see WO 98/27081) in basic buffer (50 mM HEPES pH 7.4 (KOH), 10 mM MgCl2, 100 mM NaCl, 10 μM 3-isobutyl-1-methylxanthine (IBMX) (Sigma-Aldrich)) was added to all wells followed by 10 μl 2×ATP buffer (i.e. basic buffer containing 3 mM ATP) with 5-HT (at a concentration equivalent to a dose response of 4×EC50). The resultant mixture was then incubated at room temperature for 30-45 minutes to allow cAMP production. cAMP production was then measured using the DiscoveRX™ HitHunter™ chemiluminescence cAMP assay kit (DiscoveRx Corporation, 42501 Albrae Street, Fremont, Calif. 94538; Product Code: 90-0004L) or any other suitable cAMP measurement assay.
IC50 values were estimated from arbitrary designated unit (ADU) measurements from a Perkin Elmer Viewlux instrument using a four parameter logistic curve fit within EXCEL (Bowen, W. P. and Jerman, J. C. (1995), Nonlinear regression using spreadsheets. Trends in Pharmacol. Sci., 16, 413-417). Functional Ki values were calculated using the method of Cheng, Y. C. and Prussof, W. H. (Biochemical Pharmacol (1973) 22 3099-3108). plC50 and fpKi are the negative log 10 of the molar IC50 and functional Ki respectively.

T1 sequence (P50406 whole entry): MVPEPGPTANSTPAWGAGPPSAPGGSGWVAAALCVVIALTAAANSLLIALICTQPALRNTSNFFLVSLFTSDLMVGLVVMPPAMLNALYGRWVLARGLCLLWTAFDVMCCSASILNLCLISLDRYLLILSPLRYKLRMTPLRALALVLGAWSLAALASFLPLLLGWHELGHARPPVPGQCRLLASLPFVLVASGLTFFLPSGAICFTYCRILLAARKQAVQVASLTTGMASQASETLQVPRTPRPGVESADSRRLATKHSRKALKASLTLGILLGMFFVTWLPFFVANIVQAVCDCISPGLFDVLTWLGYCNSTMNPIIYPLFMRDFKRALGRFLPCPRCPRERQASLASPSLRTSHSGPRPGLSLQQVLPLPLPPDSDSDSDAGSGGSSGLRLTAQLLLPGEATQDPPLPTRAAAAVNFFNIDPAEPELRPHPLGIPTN

Row | SMILES | Ki
1 | O=S(=O)(c1ccccc1)c1ccc2c(ccn2C2CCNCC2)c1 [Example E1, 5-(Phenylsulfonyl)-1-(4-piperidinyl)-1H-indole hydrochloride] | ≤ 10 nM
2 | CN1CCC(n2ccc3cc(S(=O)(=O)c4ccccc4)ccc32)CC1 [Example E2, 1-(1-Methyl-4-piperidinyl)-5-(phenylsulfonyl)-1H-indole hydrochloride] | ≤ 10 nM
3 | O=S(=O)(c1ccccc1)c1ccc2c(c1)CCN2C1CCNCC1 [Example E3a, 5-(Phenylsulfonyl)-1-(4-piperidinyl)-2,3-dihydro-1H-indole hydrochloride] | ≤ 10 nM
4 | CN1CCC(N2CCc3cc(S(=O)(=O)c4ccccc4)ccc32)CC1 [Example E4, 1-(1-Methyl-4-piperidinyl)-5-(phenylsulfonyl)-2,3-dihydro-1H-indole hydrochloride] | ≤ 10 nM
5 | CN1CCC(N2CC(C)(C)c3cc(S(=O)(=O)c4ccccc4)ccc32)CC1 [Example E5, 3,3-Dimethyl-1-(1-methyl-4-piperidinyl)-5-(phenylsulfonyl)-2,3-dihydro-1H-indole hydrochloride] | < 316 nM
6 | O=S(=O)(c1ccccc1)c1ccc2c(c1)CCN2C1CCN2CCCC2C1 (centres unmarked) [Example E6, 1-(Octahydro-7-indolizinyl)-5-(phenylsulfonyl)-2,3-dihydro-1H-indole hydrochloride] | ≤ 10 nM
7 | CC1(N2CCc3cc(S(=O)(=O)c4ccccc4)ccc32)CCNCC1 [Example E7, 1-(4-Methyl-4-piperidinyl)-5-(phenylsulfonyl)-2,3-dihydro-1H-indole hydrochloride] | < 316 nM
8 | O=S(=O)(c1cccc(F)c1)c1ccc2c(c1)CCN2C1CCNCC1 [Example E8, 5-[(3-Fluorophenyl)sulfonyl]-1-(4-piperidinyl)-2,3-dihydro-1H-indole hydrochloride] | ≤ 10 nM
9 | O=S(=O)(c1ccc2c(c1)CCN2C1CCNCC1)c1ccccc1F [Example E9, 5-[(2-Fluorophenyl)sulfonyl]-1-(4-piperidinyl)-2,3-dihydro-1H-indole hydrochloride] | ≤ 10 nM
10 | O=S(=O)(c1cc(F)cc(F)c1)c1ccc2c(c1)CCN2C1CCNCC1 [Example E10, 5-[(3,5-Difluorophenyl)sulfonyl]-1-(4-piperidinyl)-2,3-dihydro-1H-indole hydrochloride] | ≤ 10 nM
11 | Cc1ccc(S(=O)(=O)c2ccc3c(c2)CCN3C2CCNCC2)cc1 [Example E11, 5-[(4-methylphenyl)sulfonyl]-1-(4-piperidinyl)-2,3-dihydro-1H-indole] | ≤ 10 nM
12 | O=S(=O)(c1ccc2c(c1)CCN2C1CCNCC1)c1ccccc1Cl [Example E12, 5-[(2-Chlorophenyl)sulfonyl]-1-(4-piperidinyl)-2,3-dihydro-1H-indole hydrochloride] | ≤ 10 nM
13 | O=S(=O)(c1ccc(Cl)cc1)c1ccc2c(c1)CCN2C1CCNCC1 [Example E13, 5-[(4-Chlorophenyl)sulfonyl]-1-(4-piperidinyl)-2,3-dihydro-1H-indole hydrochloride] | ≤ 10 nM
14 | O=S(=O)(c1ccc2c(ccn2C2CCNCC2)c1)c1ccccc1F [Example E14, 5-[(2-fluorophenyl)sulfonyl]-1-(4-piperidinyl)-1H-indole hydrochloride] | ≤ 10 nM
15 | O=S(=O)(c1ccc(F)cc1)c1ccc2c(c1)CCN2C1CCNCC1 [Example E15a, 5-[(4-Fluorophenyl)sulfonyl]-1-(4-piperidinyl)-2,3-dihydro-1H-indole hydrochloride] | ≤ 10 nM
16 | O=S(=O)(c1ccccc1)c1ccc2c(c1)CCN2C1CCCNCC1 (centres unmarked) [Example E16a, 1-(Hexahydro-1H-azepin-4-yl)-5-(phenylsulfonyl)-2,3-dihydro-1H-indole] | ≤ 10 nM
17 | O=S(=O)(c1ccccc1)c1ccc2c(c1)CCN2C1CCNC1 (centres unmarked) [Example E17a, 5-(Phenylsulfonyl)-1-(3-pyrrolidinyl)-2,3-dihydro-1H-indole] | ≤ 10 nM
18 | O=S(=O)(c1ccccc1)c1cc(F)c2c(c1)CCN2C1CCNCC1 [Example E18a, 7-Fluoro-5-(phenylsulfonyl)-1-(4-piperidinyl)-2,3-dihydro-1H-indole hydrochloride] | ≤ 10 nM
19 | O=S(=O)(c1ccccc1)c1cc(Cl)c2c(c1)CCN2C1CCNCC1 [Example E19a, 7-Chloro-5-(phenylsulfonyl)-1-(4-piperidinyl)-2,3-dihydro-1H-indole hydrochloride] | ≤ 10 nM

Row | SMILES | Ki
20 | N#Cc1ccccc1S(=O)(=O)c1ccc2c(c1)CCN2C1CCNCC1 [Example E20, 2-{[1-(4-Piperidinyl)-2,3-dihydro-1H-indol-5-yl]sulfonyl}-benzonitrile hydrochloride] | ≤ 10 nM
21 | N#Cc1cccc(S(=O)(=O)c2ccc3c(c2)CCN3C2CCNCC2)c1 [Example E21, 3-{[1-(4-Piperidinyl)-2,3-dihydro-1H-indol-5-yl]sulfonyl}benzonitrile hydrochloride] | ≤ 10 nM
22 | O=S(=O)(c1cccc(F)c1)c1ccc2c(ccn2C2CCNCC2)c1 [Example E22, 5-[(3-Fluorophenyl)sulfonyl]-1-(4-piperidinyl)-1H-indole hydrochloride] | ≤ 10 nM
23 | COc1cccc(S(=O)(=O)c2ccc3c(c2)CCN3C2CCNCC2)c1 [Example E23, 5-{[3-(Methyloxy)phenyl]sulfonyl}-1-(4-piperidinyl)-2,3-dihydro-1H-indole hydrochloride] | ≤ 10 nM
24 | O=S(=O)(c1cccc(Cl)c1)c1ccc2c(c1)CCN2C1CCNCC1 [Example E24, 5-[(3-Chlorophenyl)sulfonyl]-1-(4-piperidinyl)-2,3-dihydro-1H-indole hydrochloride] | ≤ 10 nM
25 | O=S(=O)(c1ccc(F)c(F)c1)c1ccc2c(c1)CCN2C1CCNCC1 [Example E25, 5-[(3,4-Difluorophenyl)sulfonyl]-1-(4-piperidinyl)-2,3-dihydro-1H-indole hydrochloride] | ≤ 10 nM
26 | Cc1cccc(S(=O)(=O)c2ccc3c(c2)CCN3C2CCNCC2)c1 [Example E26, 5-[(3-Methylphenyl)sulfonyl]-1-(4-piperidinyl)-2,3-dihydro-1H-indole hydrochloride] | ≤ 10 nM
27 | O=S(=O)(c1ccc2c(c1)CCN2C1CCNCC1)c1cc(F)ccc1F [Example E27, 5-[(2,5-Difluorophenyl)sulfonyl]-1-(4-piperidinyl)-2,3-dihydro-1H-indole hydrochloride] | ≤ 10 nM
28 | Cc1nc(C)c(S(=O)(=O)c2ccc3c(c2)CCN3C2CCNCC2)s1 [Example E28, 5-[(2,4-Dimethyl-1,3-thiazol-5-yl)sulfonyl]-1-(4-piperidinyl)-2,3-dihydro-1H-indole hydrochloride] | ≤ 10 nM
29 | Cc1nn(C)c(C)c1S(=O)(=O)c1ccc2c(c1)CCN2C1CCNCC1 [Example E29, 1-(4-Piperidinyl)-5-[(1,3,5-trimethyl-1H-pyrazol-4-yl)sulfonyl]-2,3-dihydro-1H-indole hydrochloride] | < 316 nM
30 | CN1CCC(N2CCc3cc(S(=O)(=O)c4ccccc4)ccc32)C1 (centres unmarked) [Example E30, 1-(1-Methyl-3-pyrrolidinyl)-5-(phenylsulfonyl)-2,3-dihydro-1H-indole hydrochloride] | ≤ 10 nM
31 | CN1CCCC(N2CCc3cc(S(=O)(=O)c4ccccc4)ccc32)CC1 (centres unmarked) [Example E31, 1-(1-Methylhexahydro-1H-azepin-4-yl)-5-(phenylsulfonyl)-2,3-dihydro-1H-indole hydrochloride] | ≤ 10 nM
32 | CN1CCC(N2CCc3cc(S(=O)(=O)c4ccccc4)cc(Cl)c32)CC1 [Example E32, 7-Chloro-1-(1-methyl-4-piperidinyl)-5-(phenylsulfonyl)-2,3-dihydro-1H-indole hydrochloride] | ≤ 10 nM
33 | CCN1CCC(n2ccc3cc(S(=O)(=O)c4cccc(F)c4)ccc32)CC1 [Example E33, 1-(1-Ethyl-4-piperidinyl)-5-[(3-fluorophenyl)sulfonyl]-1H-indole hydrochloride] | ≤ 10 nM
34 | CCCN1CCC(N2CCc3cc(S(=O)(=O)c4cc(F)cc(F)c4)ccc32)CC1 [Example E34, 5-[(3,5-Difluorophenyl)sulfonyl]-1-(1-propyl-4-piperidinyl)-2,3-dihydro-1H-indole hydrochloride] | ≤ 10 nM
35 | CCN1CCC(n2ccc3cc(S(=O)(=O)c4cc(F)cc(F)c4)ccc32)CC1 [Example E35, 1-(1-Ethyl-4-piperidinyl)-5-[(3,5-difluorophenyl)sulfonyl]-1H-indole hydrochloride] | ≤ 10 nM
36 | CC(C)N1CCC(N2CCc3cc(S(=O)(=O)c4ccccc4)ccc32)CC1 [Example E36, 1-[1-(1-Methylethyl)-4-piperidinyl]-5-(phenylsulfonyl)-2,3-dihydro-1H-indole] | ≤ 10 nM
37 | CC(C)CN1CCC(N2CCc3cc(S(=O)(=O)c4ccccc4)ccc32)CC1 [Example E37, 1-[1-(2-Methylpropyl)-4-piperidinyl]-5-(phenylsulfonyl)-2,3-dihydro-1H-indole hydrochloride] | ≤ 10 nM
38 | CC(C)(C)CN1CCC(N2CCc3cc(S(=O)(=O)c4ccccc4)ccc32)CC1 [Example E38, 1-[1-(2,2-dimethylpropyl)-4-piperidinyl]-5-(phenylsulfonyl)-2,3-dihydro 1H-indole] | < 316 nM

Source: patent US20080318933A1, “5-Sulfonyl-1-Piperidinyl Substituted Indole Derivatives as 5-Ht6 Receptor Antagonists for the Treatment of Cns Disorders” (Glaxo Group Limited, priority 2004, published 2008)
